Experimental data reported in patent publication US7951838B2, “Substituted spirocyclic chromanamine compounds as Beta-Secretase modulators and methods of use” (Amgen Inc., priority 2007, dated 2011).

Columns and labels:
BACE [1] = target: T1, BACE (Homo sapiens, UniProt P56817); assay: BACE cell-based assay (Cell Assay), inhibition of Aβ40 by sandwich ELISA; conditions: Aβ40 in conditioned medium of cells stably expressing APP, 24 h incubation
T1 construct: Cells stably expressing Amyloid Precursor Protein (APP) were plated at a density of 40K cells/well in 96 well plates; endogenous in cells
Method: BACE Cell-Based Assay (Cell Assay)
The cell-based assay measures inhibition or reduction of Aβ40 in conditioned medium of test compound treated cells expressing amyloid precursor protein.
Cells stably expressing Amyloid Precursor Protein (APP) were plated at a density of 40K cells/well in 96 well plates (Costar). The cells were cultivated for 24 hours at 37° C. and 5% CO2 in DMEM supplemented with 10% FBS. The test compounds were then added to cells in 10-point dose response concentrations with the starting concentration being either 100 μM or 10 μM. The compounds were diluted from stock solutions in DMSO and the final DMSO concentration of the test compounds on cells was 0.1%. After 24 h of incubation with the test compounds the supernatant conditioned media was collected and the Aβ40 levels were determined using a sandwich ELISA. The IC50 of the compound was calculated from the percent of control or percent inhibition of Aβ40 as a function of the concentration of the test compound.
The sandwich ELISA to detect Aβ40 was performed in 96 well microtiter plates, which were pre-treated with goat anti-rabbit IgG (Pierce). The capture and detecting antibody pair that were used to detect Aβ40 from cell supernatants were affinity purified pAb40 (Biosource) and biotinylated 6E10 (Signet Labs Inc.), respectively. The optimal concentration for the pAb40 antibody was 3 μg/ml in Superblock/TBS (Pierce) that was supplemented with 0.05% Tween 20 (Sigma). Optimal concentration for the detection antibody 6E10-biotinylated was 0.5 μg/ml in Superblock/TBS (Pierce) that had been supplemented with 2% normal goat serum and 2% normal mouse serum.
Cellular supernatants were incubated with the capture antibody for 3 h at 4° C., followed by 3 wash steps in TBS-tween (0.05%). The detecting antibody incubation was for 2 h at 4° C., again followed by the wash steps as described previously. The final readout of the ELISA is Time-Resolved Fluorescence (counts per minute) using Delfia reagents Streptavidin-Europium and Enhancement solutions (Perkin Elmer) and the Victor 2 multilabel counter (Perkin Elmer).

BACE [2] = target: T1, BACE; assay: In vitro enzymatic BACE FRET assay (Enzyme Assay); format: biochemical; conditions: pH 4.2, enzyme 0.2 nM, FRET substrate 50 nM
Method: In Vitro Enzymatic BACE FRET (Fluorescence Resonance Energy Transfer) Assay (Enzyme Assay)
Assay buffer is 0.05 M acetate, pH 4.2, 10% DMSO final, 100 uM genapol (which is a nonionic detergent, below it's Critical Micelle Concentration). Enzyme (0.2 nM) is pre-incubated for one hour with inhibitors added in 1 uL of DMSO. Then the assay is started by the addition of FRET substrate (50 nM) and incubated for one hour. The FRET assay is terminated with by addition of Tris buffer, which raises the pH to neutrality, and the fluorescence is determined The FRET substrate is a peptide with commercially available fluorophore and quencher, on opposite sides of the BACE cleavage site. Proteolytic cleavage of the FRET substrate releases quenching of fluorescence (excitation 488 nm and […]).

T1 sequence (P56817 46-501): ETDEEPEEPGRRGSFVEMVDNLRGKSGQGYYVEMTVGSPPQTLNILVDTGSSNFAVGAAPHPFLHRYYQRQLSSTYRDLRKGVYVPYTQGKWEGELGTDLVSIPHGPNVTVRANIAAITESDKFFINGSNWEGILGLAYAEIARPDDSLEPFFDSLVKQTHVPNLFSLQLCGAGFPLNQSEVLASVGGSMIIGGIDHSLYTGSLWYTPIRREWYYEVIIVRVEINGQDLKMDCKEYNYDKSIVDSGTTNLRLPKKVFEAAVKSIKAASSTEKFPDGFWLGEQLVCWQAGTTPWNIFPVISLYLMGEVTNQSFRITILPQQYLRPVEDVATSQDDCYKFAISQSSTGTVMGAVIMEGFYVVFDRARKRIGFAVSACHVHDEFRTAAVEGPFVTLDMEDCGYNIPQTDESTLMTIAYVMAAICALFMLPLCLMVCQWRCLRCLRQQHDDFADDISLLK

Structure (SMILES) | IC50 (BACE [1]) | IC50 (BACE [2])
CC(C)(C)Cc1cnc2c(c1)[C@@H](NC[C@@H](O)[C@H](Cc1ccc(F)cc1)Nc1ncnc3sccc13)CC1(CCC1)O2 [Example 35, (2R,3S)-1-(((4′S)-6′-(2,2-dimethylpropyl)-3′,4′-dihydrospiro[cyclobutane-1,2′-pyrano[2,3-b]pyridin]-4′-yl)amino)-4-(4-fluorophenyl)-3-(thieno[2,3-d]pyrimidin-4-ylamino)-2-butanol] | 0.1 to 1 µM | 10 to 25 µM
CCc1ccc2c(c1)[C@@H](NC[C@@H](O)[C@H](Cc1ccccc1)Nc1ccccc1F)CC1(CCC1)O2 [Example 31, (2R,3S)-1-(((4S)-6-ethyl-3,4-dihydrospiro[chromene-2,1′-cyclobutan]-4-yl)amino)-3-((2-fluorophenyl)amino)-4-phenyl-2-butanol] | 10 to 25 µM | 5 to 10 µM
CC(C)(C)Cc1cnc2c(c1)[C@@H](NC[C@H](O)[C@H](Cc1ccccc1)Nc1ccccc1F)CC1(CCC1)O2 [Example 41, (2S,3S)-1-(((4′S)-6′-(2,2-dimethylpropyl)-3′,4′-dihydrospiro[cyclobutane-1,2′-pyrano[2,3-b]pyridin]-4′-yl)amino)-3-((2-fluorophenyl)amino)-4-phenyl-2-butanol] | 10 to 25 µM | 10 to 25 µM

Now from value to compound:

IC50 (BACE [1]) | IC50 (BACE [2]) | Structure (SMILES)
10 to 25 µM | 10 to 25 µM | CCc1ccc2c(c1)[C@@H](NC[C@@H](O)[C@H](Cc1ccccc1)Nc1cccnc1)CC1(CCC1)O2 [Example 43, (2R,3S)-1-(((4S)-6-ethyl-3,4-dihydrospiro[chromene-2,1′-cyclobutan]-4-yl)amino)-4-phenyl-3-(3-pyridinylamino)-2-butanol]
5 to 10 µM | 10 to 25 µM | CCc1ccc2c(c1)[C@@H](NC[C@@H](O)[C@H](Cc1ccccc1)Nc1nccc(CC)n1)CC1(CCC1)O2 [Example 37, (2R,3S)-1-((S)-6-ethyl-2,2-spirocyclobutyl-chroman-4-ylamino)-4-phenyl-3-(4-ethylpyrimidin-2-ylamino)butan-2-ol]
